Paper PMC12356538, “Targeting the SARS-CoV‑2 RNA Translation Initiation Element SL1 by Molecules of Low Molecular Weight” (Journal of the American Chemical Society, 2025)
Like-named read-outs stand apart in the source and are kept apart here.

What was measured:
[1] = system: SL1 (wt)-Nanoluciferase mRNA; type: biochemical, SARS-CoV-2
SL1 Δbulge RNA = type: binding, SARS-CoV-2
SL1 wt RNA = experiment: NMR-based KD estimation, ligand-detected 1D-1H titration; type: binding, SARS-CoV-2
SL1 RNA = experiment: RNA-detected NMR binding site mapping (2D-1H,1H-TOCSY and 1D-1H); parameters: species or system SARS-CoV-2; settings: for 1H,1H CSPs [ppm] C15H5-H6 / 1H,1H CSPs [ppm] C16H5-H6 / 1H,1H CSPs [ppm] C19H5-H6 / 1H,1H CSPs [ppm] C20H5-H6 / 1H,1H CSPs [ppm] C21H5-H6 / 1H,1H CSPs [ppm] C28H5-H6 / 1H,1H CSPs [ppm] C32H5-H6 / 1H,1H CSPs [ppm] C33H5-H6 / 1H,1H CSPs [ppm] C34H5-H6 / 1H,1H CSPs [ppm] U9H5-H6 / 1H,1H CSPs [ppm] U10H5-H6 / 1H,1H CSPs [ppm] U11H5-H6 / 1H,1H CSPs [ppm] U13H5-H6 / 1H,1H CSPs [ppm] U17H5-H6 / 1H,1H CSPs [ppm] U18H5-H6 / 1H,1H CSPs [ppm] U25H5-H6: 2D TOCSY, RNA 150 μM, compound 1 mM, 298 K; for 1H CSPs [ppm] A12H2 / 1H CSPs [ppm] A29H2: RNA-detected 1D-1H
[2] = system: SARS-CoV-2 SL1 RNA (SL1 wt); type: binding; settings: for wLOGSY factor / T2 reduction [%] / CSP [Hz]: 10 μM SL1 wt, 200 μM ligand; for wLOGSY factor / T2 reduction [%]: pH 6.2; for T2 reduction [%]: CPMG 100 vs 5 ms; for Rank: FBS ranking from summed ranks of CSP, wLOGSY and T2 results; for CSP [Hz]: ligand 1H CSP, [RNA]:[ligand] 1:20, pH 6.2; for FBS binding to SL1, in words: ligand-detected NMR
[3] = pH 6.2
[4] = system: SL1 Δbulge-Nanoluciferase mRNA; type: biochemical, SARS-CoV-2
[5] = system: β-Globin-Nanoluciferase mRNA; experiment: Cell-free translation assay in rabbit reticulocyte lysate, Nanoluciferase readout; type: biochemical; settings: 0.2 μM mRNA, 2 μM compound
[6] = Suppl. Table 7, ligand constant at 100, SL1 wt RNA concentration 0-200, read-out: KDest
[7] = ligand 100 μM, SL1 RNA 0 to 200 or 250 μM, 298 K, 600 MHz, pH 6.2, read-out: KD est
[8] = Suppl. Table 7, ligand constant at 100, SL1 wt RNA concentration 0-250, read-out: KDest

## COc1ccc(-c2nnc(NC(=O)CN(C)C)s2)cc1OC [A.31]
[1]
  effect on translation of SL1 wt mRNA, in words: nonspecific effects
SL1 Δbulge RNA
  FBS result (CSP, wLOGSY, T2 reduction) in words: no effects
SL1 wt RNA; [6]
  Kd: 146 µM
SL1 wt RNA; [7]
  Kd: 146 ± 13 µM
SL1 RNA
  binding site / selectivity for the bulge from CSP and LB mapping, in words: weaker binding characteristics
  1H,1H CSPs [ppm] C15H5-H6: 0.0032 ppm
  1H,1H CSPs [ppm] C16H5-H6: 0.0073 ppm
  1H,1H CSPs [ppm] C19H5-H6: 0.0042 ppm
  1H,1H CSPs [ppm] C20H5-H6: 0.0021 ppm
  1H,1H CSPs [ppm] C21H5-H6: 0.0010 ppm
  1H,1H CSPs [ppm] C28H5-H6: 0.0228 ppm
  1H,1H CSPs [ppm] C32H5-H6: 0.0130 ppm
  1H,1H CSPs [ppm] C33H5-H6: 0.0067 ppm
  1H,1H CSPs [ppm] C34H5-H6: 0.0204 ppm
  1H,1H CSPs [ppm] U9H5-H6: 0.0104 ppm
  1H,1H CSPs [ppm] U10H5-H6: 0.0112 ppm
  1H,1H CSPs [ppm] U11H5-H6: 0.0256 ppm
  1H,1H CSPs [ppm] U13H5-H6: 0.0206 ppm
  1H,1H CSPs [ppm] U17H5-H6: 0.0067 ppm
  1H,1H CSPs [ppm] U18H5-H6: 0.0021 ppm
  1H,1H CSPs [ppm] U25H5-H6: 0.0122 ppm
  1H CSPs [ppm] A12H2: 0.0630 ppm
  1H CSPs [ppm] A29H2: 0.0000 ppm
[2]
  wLOGSY factor: 1.71
  T2 reduction [%]: 100.00%
  CSP [Hz]: 24.42 Hz
[2]; SL1 wt
  Rank: 1

## CN(C)CC(=O)Nc1nc2ccc([N+](=O)[O-])cc2s1 [A.14]
SL1 Δbulge RNA
  FBS result (CSP, wLOGSY, T2 reduction) in words: no effects
[3]
  solubility, in words: poor solubility
[2]
  wLOGSY factor: 0.46
  T2 reduction [%]: 100.00%
  CSP [Hz]: 22.20 Hz
[2]; SL1 wt
  Rank: 9
[2]; ligand CSP, SL1 wt
  CSP values relative to A.2: 2–3 times

## CNC(=O)Nc1nc2c(OC)cc(OC)cc2s1 [A.11]
[1]
  effect on translation of SL1 wt mRNA, in words: no inhibition
SL1 Δbulge RNA
  FBS result (CSP, wLOGSY, T2 reduction) in words: no effects
SL1 RNA
  1H,1H CSPs [ppm] C15H5-H6: 0.0010 ppm
  1H,1H CSPs [ppm] C16H5-H6: 0.0020 ppm
  1H,1H CSPs [ppm] C19H5-H6: 0.0036 ppm
  1H,1H CSPs [ppm] C20H5-H6: 0.0045 ppm
  1H,1H CSPs [ppm] C21H5-H6: 0.0061 ppm
  1H,1H CSPs [ppm] C28H5-H6: 0.0130 ppm
  1H,1H CSPs [ppm] C32H5-H6: 0.0063 ppm
  1H,1H CSPs [ppm] C33H5-H6: 0.0010 ppm
  1H,1H CSPs [ppm] C34H5-H6: 0.0025 ppm
  1H,1H CSPs [ppm] U9H5-H6: 0.0040 ppm
  1H,1H CSPs [ppm] U10H5-H6: 0.0072 ppm
  1H,1H CSPs [ppm] U11H5-H6: 0.0311 ppm
  1H,1H CSPs [ppm] U13H5-H6: 0.0216 ppm
  1H,1H CSPs [ppm] U17H5-H6: 0.0010 ppm
  1H,1H CSPs [ppm] U18H5-H6: 0.0043 ppm
  1H,1H CSPs [ppm] U25H5-H6: 0.0045 ppm
  1H CSPs [ppm] A12H2: 0.0400 ppm
  1H CSPs [ppm] A29H2: 0.0040 ppm
[2]
  wLOGSY factor: 1.51
  T2 reduction [%]: 93.00%
  CSP [Hz]: 4.50 Hz
[2]; SL1 wt
  Rank: 19

## COc1ccc2nc(NC(=O)CN3CCC[C@H](N)C3)sc2c1 [A.36]
[1]
  effect on translation of SL1 wt mRNA, in words: nonspecific effects
SL1 Δbulge RNA
  FBS result (CSP, wLOGSY, T2 reduction) in words: no effects
SL1 wt RNA; [6]
  Kd: 218 µM
SL1 wt RNA; [7]
  Kd: 218 ± 90 µM
[4]
  effect on translation of SL1 Δbulge mRNA, in words: increased translation efficiency
SL1 RNA
  binding site / selectivity for the bulge from CSP and LB mapping, in words: weaker binding characteristics
  1H,1H CSPs [ppm] C15H5-H6: 0.0010 ppm
  1H,1H CSPs [ppm] C16H5-H6: 0.0076 ppm
  1H,1H CSPs [ppm] C19H5-H6: 0.0036 ppm
  1H,1H CSPs [ppm] C20H5-H6: 0.0029 ppm
  1H,1H CSPs [ppm] C21H5-H6: 0.0010 ppm
  1H,1H CSPs [ppm] C28H5-H6: 0.0359 ppm
  1H,1H CSPs [ppm] C32H5-H6: 0.0186 ppm
  1H,1H CSPs [ppm] C33H5-H6: 0.0057 ppm
  1H,1H CSPs [ppm] C34H5-H6: 0.0079 ppm
  1H,1H CSPs [ppm] U9H5-H6: 0.0100 ppm
  1H,1H CSPs [ppm] U10H5-H6: 0.0089 ppm
  1H,1H CSPs [ppm] U11H5-H6: 0.0063 ppm
  1H,1H CSPs [ppm] U13H5-H6: 0.0308 ppm
  1H,1H CSPs [ppm] U17H5-H6: 0.0045 ppm
  1H,1H CSPs [ppm] U18H5-H6: 0.0039 ppm
  1H,1H CSPs [ppm] U25H5-H6: 0.0120 ppm
  1H CSPs [ppm] A12H2: 0.0727 ppm
[5]
  effect on translation of β-globin mRNA, in words: increased translation efficiency
[2]
  wLOGSY factor: 0.82
  T2 reduction [%]: 100.00%
  CSP [Hz]: 30.18 Hz
[2]; SL1 wt
  Rank: 2
  FBS binding to SL1, in words: positive effect on SL1 binding

## CNC(=N)Nc1nc2ccc(OC)cc2s1 [A.4]
[1]
  effect on translation of SL1 wt mRNA, in words: inhibitory effect
SL1 Δbulge RNA
  CSP [Hz]: 8.19 Hz
  Rank: 1
  T2 reduction [%]: 90.18%
  wLOGSY factor: 0.69
SL1 wt RNA; [8]
  Kd: 102 µM
SL1 wt RNA; [7]
  Kd: 102 ± 8 µM
[4]
  effect on translation of SL1 Δbulge mRNA, in words: inhibitory effect
SL1 RNA
  binding site / selectivity for the bulge from CSP and LB mapping, in words: bound the bulge less selectively
  1H,1H CSPs [ppm] C16H5-H6: 0.0103 ppm
  1H,1H CSPs [ppm] C19H5-H6: 0.0293 ppm
  1H,1H CSPs [ppm] C20H5-H6: 0.0526 ppm
  1H,1H CSPs [ppm] C21H5-H6: 0.0441 ppm
  1H,1H CSPs [ppm] C28H5-H6: 0.1355 ppm
  1H,1H CSPs [ppm] C33H5-H6: 0.0050 ppm
  1H,1H CSPs [ppm] C34H5-H6: 0.0072 ppm
  1H,1H CSPs [ppm] U9H5-H6: 0.0130 ppm
  1H,1H CSPs [ppm] U10H5-H6: 0.0146 ppm
  1H,1H CSPs [ppm] U11H5-H6: 0.0030 ppm
  1H,1H CSPs [ppm] U13H5-H6: 0.0999 ppm
  1H,1H CSPs [ppm] U17H5-H6: 0.0288 ppm
  1H,1H CSPs [ppm] U18H5-H6: 0.0191 ppm
  1H,1H CSPs [ppm] U25H5-H6: 0.0099 ppm
  1H CSPs [ppm] A12H2: 0.1560 ppm
  1H CSPs [ppm] A29H2: 0.0670 ppm
[5]
  effect on translation of β-globin mRNA, in words: boost
[2]
  wLOGSY factor: 1.21
  T2 reduction [%]: 77.83%
  CSP [Hz]: 16.14 Hz
[2]; SL1 wt
  Rank: 20
  FBS binding to SL1, in words: strongest FBS effects

## CC(=O)c1ccc(NC(=O)CN2CCCC2)cc1 [B]
SL1 wt RNA; [8]
  Kd: 150 µM
SL1 wt RNA; [7]
  Kd: 150 ± 46 µM
[3]
  solubility, in words: precipitation
SL1 RNA
  1H,1H CSPs [ppm] C15H5-H6: 0.0208 ppm
  1H,1H CSPs [ppm] C16H5-H6: 0.0120 ppm
  1H,1H CSPs [ppm] C19H5-H6: 0.0092 ppm
  1H,1H CSPs [ppm] C20H5-H6: 0.0030 ppm
  1H,1H CSPs [ppm] C21H5-H6: 0.0058 ppm
  1H,1H CSPs [ppm] C28H5-H6: 0.0263 ppm
  1H,1H CSPs [ppm] C32H5-H6: 0.0336 ppm
  1H,1H CSPs [ppm] C33H5-H6: 0.0110 ppm
  1H,1H CSPs [ppm] C34H5-H6: 0.0021 ppm
  1H,1H CSPs [ppm] U9H5-H6: 0.0063 ppm
  1H,1H CSPs [ppm] U10H5-H6: 0.0122 ppm
  1H,1H CSPs [ppm] U11H5-H6: 0.0220 ppm
  1H,1H CSPs [ppm] U13H5-H6: 0.0256 ppm
  1H,1H CSPs [ppm] U17H5-H6: 0.0061 ppm
  1H,1H CSPs [ppm] U18H5-H6: 0.0064 ppm
  1H,1H CSPs [ppm] U25H5-H6: 0.0085 ppm
